Assay results from patent US6352958B1, “Cycloimido-substituted benzofused heterocyclic herbicides” (FMC Corporation, priority 1997, dated 2002).

Columns and labels:
Assay type in all cases: in vivo
[1] = tested on: common chickweed (Stellaria media); test: Preemergence herbicidal activity, chickweed; details: Rate of Application 0.3 Kg/Ha, examined after 12-17 days
[2] = tested on: green foxtail (Setaria viridis); test: Preemergence herbicidal activity, green foxtail; details: Rate of Application 0.3 Kg/Ha, examined after 12-17 days
[3] = tested on: field corn (Zea mays var. Pioneer 3732); test: Preemergence herbicidal activity, corn; details: Rate of Application 0.3 Kg/Ha, examined after 12-17 days
[4] = tested on: wheat (Triticum aestivum var. Lew); test: Postemergence herbicidal activity, wheat; details: rate of application 0.3 Kg/Ha, rated after 12-17 days
[5] = tested on: wheat (Triticum aestivum var. Lew); test: Preemergence herbicidal activity, wheat; details: Rate of Application 0.3 Kg/Ha, examined after 12-17 days
[6] = tested on: morningglory (Ipomea lacunosa or Ipomea hederacea); test: Preemergence herbicidal activity, morningglory; details: Rate of Application 0.3 Kg/Ha, examined after 12-17 days
[7] = tested on: soybean (Glycine max var. Winchester); test: Preemergence herbicidal activity, soybean; details: Rate of Application 0.3 Kg/Ha, examined after 12-17 days
[8] = tested on: green foxtail (Setaria viridis); test: Postemergence herbicidal activity, green foxtail; details: rate of application 0.3 Kg/Ha, rated after 12-17 days
[9] = tested on: soybean (Glycine max var. Winchester); test: Postemergence herbicidal activity, soybean; details: rate of application 0.3 Kg/Ha, rated after 12-17 days
[10] = tested on: blackgrass (Aloepecurus myosuroides); test: Postemergence herbicidal activity, blackgrass; details: rate of application 0.3 Kg/Ha, rated after 12-17 days
[11] = tested on: common cocklebur (Xanthium strumarium L.); test: Preemergence herbicidal activity, cocklebur; details: Rate of Application 0.3 Kg/Ha, examined after 12-17 days
[12] = tested on: Johnsongrass (Sorghum halepense); test: Preemergence herbicidal activity, johnsongrass; details: Rate of Application 0.3 Kg/Ha, examined after 12-17 days
[13] = tested on: field corn (Zea mays var. Pioneer 3732); test: Postemergence herbicidal activity, corn; details: rate of application 0.3 Kg/Ha, rated after 12-17 days
[14] = tested on: velvetleaf (Abutilon theophrasti); test: Postemergence herbicidal activity, velvetleaf; details: rate of application 0.3 Kg/Ha, rated after 12-17 days
[15] = tested on: morningglory (Ipomea lacunosa or Ipomea hederacea); test: Postemergence herbicidal activity, morningglory; details: rate of application 0.3 Kg/Ha, rated after 12-17 days
[16] = tested on: blackgrass (Aloepecurus myosuroides); test: Preemergence herbicidal activity, blackgrass; details: Rate of Application 0.3 Kg/Ha, examined after 12-17 days
[17] = tested on: Johnsongrass (Sorghum halepense); test: Postemergence herbicidal activity, johnsongrass; details: rate of application 0.3 Kg/Ha, rated after 12-17 days
[18] = tested on: common cocklebur (Xanthium strumarium L.); test: Postemergence herbicidal activity, cocklebur; details: rate of application 0.3 Kg/Ha, rated after 12-17 days
[19] = tested on: velvetleaf (Abutilon theophrasti); test: Preemergence herbicidal activity, velvetleaf; details: Rate of Application 0.3 Kg/Ha, examined after 12-17 days

SMILES	PREEMERGENCE HERBICIDAL ACTIVITY (% CONTROL) STEME [1]	PREEMERGENCE HERBICIDAL ACTIVITY (% CONTROL) SETVI [2]	PREEMERGENCE HERBICIDAL ACTIVITY (% CONTROL) CRN [3]	Postemergence herbicidal activity (% control) WHT [4]	PREEMERGENCE HERBICIDAL ACTIVITY (% CONTROL) WHT [5]	PREEMERGENCE HERBICIDAL ACTIVITY (% CONTROL) IPOSS [6]	PREEMERGENCE HERBICIDAL ACTIVITY (% CONTROL) SOY [7]	Postemergence herbicidal activity (% control) SETVI [8]	Postemergence herbicidal activity (% control) SOY [9]	Postemergence herbicidal activity (% control) ALOMY [10]	PREEMERGENCE HERBICIDAL ACTIVITY (% CONTROL) XANPE [11]	PREEMERGENCE HERBICIDAL ACTIVITY (% CONTROL) SORHA [12]	Postemergence herbicidal activity (% control) CRN [13]	Postemergence herbicidal activity (% control) ABUTH [14]	Postemergence herbicidal activity (% control) IPOSS [15]	PREEMERGENCE HERBICIDAL ACTIVITY (% CONTROL) ALOMY [16]	Postemergence herbicidal activity (% control) SORHA [17]	Postemergence herbicidal activity (% control) XANPE [18]	PREEMERGENCE HERBICIDAL ACTIVITY (% CONTROL) ABUTH [19]	other results
COc1nc2c(-n3c(=O)cc(C(F)(F)F)n(C)c3=O)c(F)cc(Br)c2o1 [Compound 109, 1-METHYL-6-TRIFLUOROMETHYL-3-(7-BROMO-5-FLUORO-2-METHOXYBENZOXAZOL-4-YL)-2,4(1H,3H)-PYRIMIDINEDIONE]																				inhibition at 300 g/ha ([1]; Stellaria media, pre-emergence, read-out: PREEMERGENCE HERBICIDAL ACTIVITY (% CONTROL) STEME): 100%; inhibition at 300 g/ha ([2]; Setaria viridis, pre-emergence, read-out: PREEMERGENCE HERBICIDAL ACTIVITY (% CONTROL) SETVI): 100%; inhibition at 300 g/ha ([3]; Zea mays, pre-emergence, read-out: PREEMERGENCE HERBICIDAL ACTIVITY (% CONTROL) CRN): 90%; inhibition at 300 g/ha ([4]; Triticum aestivum, post-emergence, read-out: Postemergence herbicidal activity (% control) WHT): 90%; inhibition at 300 g/ha ([5]; Triticum aestivum, pre-emergence, read-out: PREEMERGENCE HERBICIDAL ACTIVITY (% CONTROL) WHT): 100%; inhibition at 300 g/ha ([6]; Ipomoea, pre-emergence, read-out: PREEMERGENCE HERBICIDAL ACTIVITY (% CONTROL) IPOSS): 100%; inhibition at 300 g/ha ([7]; Glycine max, pre-emergence, read-out: PREEMERGENCE HERBICIDAL ACTIVITY (% CONTROL) SOY): 100%; inhibition at 300 g/ha ([8]; Setaria viridis, post-emergence, read-out: Postemergence herbicidal activity (% control) SETVI): 100%; inhibition at 300 g/ha ([9]; Glycine max, post-emergence, read-out: Postemergence herbicidal activity (% control) SOY): 90%; inhibition at 300 g/ha ([10]; Alopecurus myosuroides, post-emergence, read-out: Postemergence herbicidal activity (% control) ALOMY): 90%; inhibition at 300 g/ha ([11]; Xanthium strumarium, pre-emergence, read-out: PREEMERGENCE HERBICIDAL ACTIVITY (% CONTROL) XANPE): 100%; inhibition at 300 g/ha ([12]; Sorghum halepense, pre-emergence, read-out: PREEMERGENCE HERBICIDAL ACTIVITY (% CONTROL) SORHA): 100%; inhibition at 300 g/ha ([13]; Zea mays, post-emergence, read-out: Postemergence herbicidal activity (% control) CRN): 80%; inhibition at 300 g/ha ([14]; Abutilon theophrasti, post-emergence, read-out: Postemergence herbicidal activity (% control) ABUTH): 100%; inhibition at 300 g/ha ([15]; Ipomoea, post-emergence, read-out: Postemergence herbicidal activity (% control) IPOSS): 100%; inhibition at 300 g/ha ([16]; Alopecurus myosuroides, pre-emergence, read-out: PREEMERGENCE HERBICIDAL ACTIVITY (% CONTROL) ALOMY): 100%; inhibition at 300 g/ha ([17]; Sorghum halepense, post-emergence, read-out: Postemergence herbicidal activity (% control) SORHA): 90%; inhibition at 300 g/ha ([18]; Xanthium strumarium, post-emergence, read-out: Postemergence herbicidal activity (% control) XANPE): 100%; inhibition at 300 g/ha ([19]; Abutilon theophrasti, pre-emergence, read-out: PREEMERGENCE HERBICIDAL ACTIVITY (% CONTROL) ABUTH): 100%
Cn1c(C(F)(F)F)cc(=O)n(-c2c(F)cc(Cl)c3cc(C(C)(C)N)oc23)c1=O [Compound 254]	30%	100%	80%	40%	20%	50%	25%	100%	95%	50%	50%	80%	80%	100%	70%	60%	80%	95%	100%	
Cn1c(C(F)(F)F)cc(=O)n(-c2c(F)cc(Cl)c3cc(CCF)oc23)c1=O [Compound 237]	100%	100%	90%	95%	90%	100%	100%	100%	100%	100%	100%	100%	100%	100%	100%	100%	100%	100%	100%	
Cn1c(C(F)(F)F)cc(=O)n(-c2c(F)cc(Cl)c3nc(Cc4ccccc4)[nH]c23)c1=O [Compound 376]	100%	100%	80%	50%	60%	100%	50%	100%	90%	90%	100%	70%	95%	100%	100%	100%	100%	100%	100%	
C=CCOc1nc2c(-n3c(=O)cc(C(F)(F)F)n(C)c3=O)c(F)cc(Br)c2o1 [Compound 110]	100%	100%	70%	40%	50%	90%	100%	80%	80%	70%	40%	100%	50%	100%	100%	80%	70%	100%	100%	
CC(=O)OCCc1cc2c(Cl)cc(F)c(-n3c(=O)cc(C(F)(F)F)n(C)c3=O)c2o1 [Compound 260]	100%	100%	80%	80%	70%	100%	100%	100%	90%	90%	100%	100%	70%	100%	100%	95%	90%	100%	100%	
